Values of other authors as cited in paper PMC9546217, “Exploring novel nitrofuranyl sulfonohydrazides as anti‐Leishmania and anti‐cancer agents: Synthesis, in vitro efficacy and hit identification” (Chemical Biology & Drug Design, 2022).

How the values were obtained:
[1] = test system: Bacillus subtilis (ATCC 6633); parameters: method as in Alsaeedi et al., [2015]; settings: diffusion method; ref Alsaeedi et al., [2015]; cited from earlier work
[2] = test system: Pseudomonas aeruginosa (ATCC 27853); parameters: method as in Alsaeedi et al., [2015]; settings: diffusion method; ref Alsaeedi et al., [2015]; cited from earlier work

Cc1ccc(S(=O)(=O)N/N=C/c2ccc([N+](=O)[O-])o2)cc1 [2c, (E)-4-Methyl-N'-[(5-nitrofuran-2-yl)methylene]benzenesulfonohydrazide]
antimicrobial activity (inhibition zone) [1]: no activity | antimicrobial activity (inhibition zone) [2]: no activity
